Measured values: patent publication US10245249B2, “Pharmaceutical compositions comprising nitroxyl donors” (Cardioxyl Pharmaceuticals, Inc., priority 2013, dated 2019)

Assay: HNO production determined via N2O quantification (GC headspace analysis)
Type: physicochemical
Conditions: PBS, 37° C.
Summary of the method: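 Compounds dissolved in argon-purged anhydrous DMF were added to argon-purged PBS in sealed vials at 37° C for the set incubation time; headspace N2O was measured by GC with micro-ECD. N2O gas and CXL-1020 served as standards, and relative N2O yield (%) was calculated per incubation time.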

SMILES	Relative N2O Yield (90 minutes incubation) [%]	Relative N2O Yield (360 minutes incubation) [%]
Cc1ccc(S(=O)(=O)NO)o1 [Compound 1, N-Hydroxy-5-methylfuran-2-sulfonamide]	52	–
CS(=O)(=O)c1cccc(S(=O)(=O)NO)c1 [Compound 2, N-Hydroxy-3-methanesulfonylbenzene-1-sulfonamide]	82	94
O=S(=O)(NO)c1ccco1 [Compound 83, N-Hydroxyfuran-2-sulfonamide]	42	86
Cc1ccc(S(=O)(=O)NO)s1 [Compound 84, N-Hydroxy-5-methylthiophene-2-sulfonamide]	52	67
Cn1ccc(S(=O)(=O)NO)n1 [Compound 85, N-Hydroxy-1-methyl-1H-pyrazole-3-sulfonamide]	33.5	–
